ChEMBL document CHEMBL4196088, “Induction of cell killing and autophagy by amphiphilic pyrrolidine derivatives on human pancreatic cancer cells” (Eur J Med Chem, 2018)
Active and inactive are the calls of the source. The calls are words filed in the database; no cut-off is given here.

Tests used:
Fibroblast [1] = test: Induction of apoptosis in human primary fibroblasts at 20 uM after 72 hrs by propidium iodide staining based flow cytometry (reference value: 6.7%); type: cell-based
[2] = Induction of apoptosis in HPNE cells assessed as accumulation at sub-G0/G1 phase at 20 uM after 48 hrs by propidium iodide staining based flow cytometry (reference value: 0.7%); type: cell-based; details: human
PK9 [3] = test: Induction of apoptosis in human PK9 cells assessed as accumulation at sub-G0/G1 phase at 20 uM after 48 hrs by propidium iodide staining based flow cytometry (reference value: 3.8%); type: functional
BXPC-3 [4] = test: Induction of apoptosis in human BxPC3 cells assessed as accumulation at sub-G0/G1 phase at 20 uM after 48 hrs by propidium iodide staining based flow cytometry (reference value: 2.8%); type: functional
BXPC-3 [5] = test: Induction of apoptosis in human BxPC3 cells assessed as accumulation at sub-G0/G1 phase at 20 uM after 24 hrs by propidium iodide staining based flow cytometry (reference value: 2.3%); type: functional
MIA PaCa-2 [6] = test: Induction of autophagy in human MIAPaCa2 cells assessed as increase in LC3-2 protein expression at 20 uM after 15 to 48 hrs by Western blot analysis; type: functional, cell-based
MIA PaCa-2 [7] = test: Induction of apoptosis in human MIAPaCa2 cells assessed as early apoptotic cells at 20 uM after 48 hrs by Annexin V-FITC/propidium iodide staining based flow cytometry (reference value: 5.16%); type: functional
PANC-1 = test: Induction of apoptosis in human PANC1 cells assessed as accumulation at sub-G0/G1 phase at 10 uM after 48 hrs by propidium iodide staining based flow cytometry (reference value: 0.2 to 2.9%); type: functional
[8] = Induction of apoptosis in HPNE cells assessed as accumulation at sub-G0/G1 phase at 10 uM after 48 hrs by propidium iodide staining based flow cytometry (reference value: 0.7%); type: cell-based; details: human
BXPC-3 [9] = test: Induction of apoptosis in human BxPC3 cells harboring pSFFV-Bcl-XL assessed as accumulation at sub-G0/G1 phase at 10 uM after 24 hrs by propidium iodide staining based flow cytometry (reference value: 1.5%); type: functional
BXPC-3 [10] = test: Induction of apoptosis in human BxPC3 cells assessed as accumulation at sub-G0/G1 phase at 20 uM after 48 hrs in presence of autophagy inhibitor 3-MA by propidium iodide staining based flow cytometry; type: functional, cell-based
BXPC-3 [11] = test: Induction of apoptosis in human BxPC3 cells harboring pSFFV-Bcl-XL assessed as accumulation at sub-G0/G1 phase at 10 uM after 48 hrs by propidium iodide staining based flow cytometry (reference value: 1.9%); type: functional
PK9 [12] = test: Induction of apoptosis in human PK9 cells assessed as accumulation at sub-G0/G1 phase at 20 uM after 24 hrs by propidium iodide staining based flow cytometry (reference value: 2.2%); type: functional
PK9 [13] = test: Induction of apoptosis in human PK9 cells assessed as accumulation at sub-G0/G1 phase at 10 uM after 24 hrs by propidium iodide staining based flow cytometry (reference value: 2.2%); type: functional
[14] = Induction of apoptosis in HPNE cells assessed as accumulation at sub-G0/G1 phase at 10 uM after 24 hrs by propidium iodide staining based flow cytometry (reference value: 0.6%); type: cell-based; details: human
MIA PaCa-2 [15] = test: Induction of apoptosis in human MIAPaCa2 cells assessed as necrotic cells at 20 uM after 24 hrs by Annexin V-FITC/propidium iodide staining based flow cytometry (reference value: 0.63%); type: functional
BXPC-3 [16] = test: Induction of apoptosis in human BxPC3 cells assessed as accumulation at sub-G0/G1 phase at 20 uM after 48 hrs in presence of autophagy inhibitor chloroquine by propidium iodide staining based flow cytometry; type: functional, cell-based
PK9 [17] = test: Induction of apoptosis in human PK9 cells assessed as accumulation at sub-G0/G1 phase at 20 uM after 72 hrs by propidium iodide staining based flow cytometry (reference value: 4%); type: functional
BXPC-3 [18] = test: Induction of apoptosis in human BxPC3 cells assessed as accumulation at sub-G0/G1 phase at 20 uM after 48 hrs in presence of autophagy inhibitor bafilomycin A1 by propidium iodide staining based flow cytometry; type: functional, cell-based
BXPC-3 [19] = test: Induction of apoptosis in human BxPC3 cells assessed as accumulation at sub-G0/G1 phase at 10 uM after 24 hrs by propidium iodide staining based flow cytometry (reference value: 1.8%); type: functional
[20] = Induction of apoptosis in HPNE cells assessed as accumulation at sub-G0/G1 phase at 20 uM after 72 hrs by propidium iodide staining based flow cytometry (reference value: 6.6%); type: cell-based; details: human
[21] = Induction of apoptosis in HPNE cells assessed as accumulation at sub-G0/G1 phase at 10 uM after 72 hrs by propidium iodide staining based flow cytometry (reference value: 6.6%); type: cell-based; details: human
[22] = Induction of apoptosis in HPNE cells assessed as accumulation at sub-G0/G1 phase at 20 uM after 24 hrs by propidium iodide staining based flow cytometry (reference value: 0.6%); type: cell-based; details: human
BXPC-3 [23] = test: Induction of apoptosis in human BxPC3 cells assessed as accumulation at sub-G0/G1 phase harboring pSFFV-Bcl-XL at 20 uM after 24 hrs by propidium iodide staining based flow cytometry (reference value: 1.2%); type: functional
Fibroblast [24] = test: Induction of apoptosis in human primary fibroblasts at 20 uM after 48 hrs by propidium iodide staining based flow cytometry (reference value: 6.1%); type: cell-based
BXPC-3 [25] = test: Induction of apoptosis in human BxPC3 cells assessed as accumulation at sub-G0/G1 phase harboring pSFFV-Bcl-XL at 20 uM after 72 hrs by propidium iodide staining based flow cytometry (reference value: 1.3%); type: functional
MIA PaCa-2 [26] = test: Induction of apoptosis in human MIAPaCa2 cells assessed as increase in cleaved PARP protein expression at 20 uM after 15 to 48 hrs by Western blot analysis; type: functional, cell-based
BXPC-3 [27] = test: Induction of apoptosis in human BxPC3 cells assessed as accumulation at sub-G0/G1 phase at 10 uM after 48 hrs by propidium iodide staining based flow cytometry (reference value: 2.8%); type: functional
BXPC-3 [28] = test: Induction of apoptosis in human BxPC3 cells assessed as accumulation at sub-G0/G1 phase at 20 uM after 72 hrs by propidium iodide staining based flow cytometry (reference value: 3.4%); type: functional
PK9 [29] = test: Induction of apoptosis in human PK9 cells assessed as accumulation at sub-G0/G1 phase at 10 uM after 48 hrs by propidium iodide staining based flow cytometry (reference value: 3.8%); type: functional
MIA PaCa-2 [30] = test: Induction of apoptosis in human MIAPaCa2 cells assessed as late apoptotic cells at 20 uM after 48 hrs by Annexin V-FITC/propidium iodide staining based flow cytometry (reference value: 7.4%); type: functional
MIA PaCa-2 [31] = test: Induction of apoptosis in human MIAPaCa2 cells assessed as live cells at 20 uM after 24 hrs by Annexin V-FITC/propidium iodide staining based flow cytometry (reference value: 86.79%); type: functional
BXPC-3 [32] = test: Induction of autophagy in human BxPC3 cells assessed as increase in LC3-2 protein expression at 20 uM after 15 to 48 hrs by Western blot analysis; type: functional, cell-based
MIA PaCa-2 [33] = test: Induction of apoptosis in human MIAPaCa2 cells assessed as late apoptotic cells at 20 uM after 24 hrs by Annexin V-FITC/propidium iodide staining based flow cytometry (reference value: 7.4%); type: functional

Compound | Activity (Fibroblast [1]) [%] | Activity [2] [%] | Activity (PK9 [3]) [%] | Activity (BXPC-3 [4]) [%] | Activity (BXPC-3 [5]) [%] | Activity (MIA PaCa-2 [6]) | Activity (MIA PaCa-2 [7]) [%] | Activity (PANC-1) [%] | Activity [8] [%] | Activity (BXPC-3 [9]) [%] | Activity (BXPC-3 [10]) | Activity (BXPC-3 [11]) [%] | Activity (PK9 [12]) [%] | Activity (PK9 [13]) [%] | Activity [14] [%] | Activity (MIA PaCa-2 [15]) [%] | Activity (BXPC-3 [16]) | Activity (PK9 [17]) [%] | Activity (BXPC-3 [18]) | Activity (BXPC-3 [19]) [%] | other results
CCCCCC/C=C\CCCCCCCCOC[C@H]1NC[C@H](O)[C@@H]1O | 18.7 | 75.7 | 20 | 33.7 | 15.8 | Active | 47.46 | 7.1 | 30.8 | 2 | Active | 3.7 | 10.1 | 3.8 | 23.9 | 0.71 | Active | 28.6 | Active | 9.6 | Activity [20]: 81.7%; Activity [21]: 42.1%; Activity [22]: 70.6%; Activity (BXPC-3 [23]): 2.8%; Activity (Fibroblast [24]): 13.9%; Activity (BXPC-3 [25]): 8.6%; Activity (MIA PaCa-2 [26]): Active; Activity (BXPC-3 [27]): 12.8%; Activity (BXPC-3 [28]): 46.8%; Activity (PK9 [29]): 6.1%; Activity (MIA PaCa-2 [30]): 44.69%; Activity (MIA PaCa-2 [31]): 76.71%; Activity (BXPC-3 [32]): Active; Activity (MIA PaCa-2 [33]): 10.68%
CCCCCCCCCCCCCCCCCCOCC(COP(=O)([O-])OCC[N+](C)(C)C)OC (stereo not drawn) [EDELFOSINE] | 9.8 | 7.3 | 11.2 | 28.9 | 16.8 | Active | 49.78 | 11.5 | 3.5 | 1.8 | Active | 3.7 | 4.8 | 3.8 | 1.9 | 7.47 | Active | 15.6 | Active | 14.2 | Activity [20]: 8.2%; Activity [21]: 4.8%; Activity [22]: 2.8%; Activity (BXPC-3 [23]): 3%; Activity (Fibroblast [24]): 8.6%; Activity (BXPC-3 [25]): 2.8%; Activity (MIA PaCa-2 [26]): Active; Activity (BXPC-3 [27]): 16.5%; Activity (BXPC-3 [28]): 39.2%; Activity (PK9 [29]): 8%; Activity (MIA PaCa-2 [30]): 45.92%; Activity (MIA PaCa-2 [31]): 11.51%; Activity (BXPC-3 [32]): Active; Activity (MIA PaCa-2 [33]): 52.52%
